Data reported in patent US20090281049A1, “New use of ginsenoside compound-k in manufacturing medicaments” (priority 2006, published 2009).

Tested on: Collagen Type II (CII) induced arthritis in rats
Experiment: Preventive effect on Collagen Type II (CII) induced arthritis in rats
Format: in vivo, Rat, SD strain
Method: Inflammation-induced agent: Collagen Type II was dissolved in 0.1 mol/L acetic acid to make final concentration be 2 mg/ml collagen solution, and held in 4° C. overnight. The Collagen Type II solution was added to cold Freund's Adjuvant Incomplete by drops (Collagen Type II: Freund's Adjuvant Incomplete=1:1) on the next day, emulsified completely (Type II Collagen solution: Freund's Adjuvant Incomplete=1:1), and the final concentration of Collagen Type II was 1 mg/ml. The Collagen Type II emulsion was reserved in a refrigerator at 4° C.
Immune method: Each rat was immunized by being injected subcutaneously at 5 points on the back with 0.1 ml emulsion in each point, total of […] (contained 0.5 mg Collagen Type II), and immunized again in the same way 7 days later. An emulsion of 0.1 mol/L acetic acid and Freund's Adjuvant Incomplete was injected in control group. The swell values of the arthrosis in right hind ankle and foot were measured respectively by using a hydroplethismometer before injection and 20 days after immunization.
The Collagen Type II solution, which had been dissolved in acetic acid and held overnight, was adjusted to concentration 2 mg/ml, then added by drops slowly to Freund's Adjuvant Incomplete in proportion of 1:1. After the mixture was emulsified completely, each rat was injected subcutaneously at 5 points on the back with 0.1 ml emulsion in each point (total 0.5 ml in each rat, containing 0.5 mg Collagen Type II) for the first immunization. 7 days later, the second immunization was repeated in the same way.
The animals were divided into large dose group: Ginsenoside Compound-K, 10 mg/kg, iv, medium dose group: Ginsenoside Compound-K, 5 mg/kg, iv, small dose group: Ginsenoside Compound-K, 2.5 mg/kg, iv, Tripterygium Wilfordii Hook group: 1.5 mg/kg, po-, Enbrel group: 9 mg/kg, sc and blank control group: physiological saline 10 mg/kg, iv. The animals of administration groups were administered at the first immunization and stopped administering 8 days after the first immunization. The swell value of arthrosis in ankle and foot was measured by using hydroplethismometer before immunization and on day 20, 22, 24, 27 and 29 after the first immunization respectively. Swell rate and inhibition rate were calculated by the same method as the foregoing. Differences among groups were compared with t test. When the treatment finished, the arthroses in ankle and foot were taken for pathological examination.

For `CC(C)=CCC[C@](C)(O[C@@H]1O[C@H](CO)[C@@H](O)[C@H](O)[C@H]1O)[C@H]1CC[C@]2(C)[C@@H]1[C@H](O)C[C@@H]1[C@@]3(C)CC[C@H](O)C(C)(C)[C@@H]3CC[C@]12C` [Ginsenoside Compound-K, ginsenoside Compound-K], the swell value (2.5 mg/kg iv, 0 day) was 1.09 ± 0.04 mL, the inhibition rate (2.5 mg/kg iv, 20 day) was <23.26> % and the swell rate (2.5 mg/kg iv, 20 day) was “(40.29 ± 18.03) %”. The swell value (2.5 mg/kg iv, 20 day) was 1.39 ± 0.24 mL, the inhibition rate (2.5 mg/kg iv, 22 day) was <24.39> % and the swell rate (2.5 mg/kg iv, 22 day) was “(38.98 ± 18.96) %”. For the same compound, the swell value (2.5 mg/kg iv, 22 day) was 1.38 ± 0.24 mL, the inhibition rate (2.5 mg/kg iv, 24 day) was <25.92> % and the swell rate (2.5 mg/kg iv, 24 day) was “(38.92 ± 15.07) %”. The swell value (2.5 mg/kg iv, 24 day) was 1.37 ± 0.24 mL, the inhibition rate (2.5 mg/kg iv, 27 day) was <27.08> % and the swell rate (2.5 mg/kg iv, 27 day) was “(36.93 ± 13.02) %”. The swell value (2.5 mg/kg iv, 27 day) was 1.35 ± 0.22 mL, the inhibition rate (2.5 mg/kg iv, 29 day) was <27.60> % and the swell rate (2.5 mg/kg iv, 29 day) was “(31.75 ± 13.70) %”. For the same compound, the swell value (2.5 mg/kg iv, 29 day) was 1.33 ± 0.17 mL, the swell value (5 mg/kg iv, 0 day) was 1.11 ± 0.06 mL and the inhibition rate (5 mg/kg iv, 20 day) was <29.01> %. The swell rate (5 mg/kg iv, 20 day) was “(37.27 ± 15.30) %”, the swell value (5 mg/kg iv, 20 day) was 1.43 ± 0.23 mL and the inhibition rate (5 mg/kg iv, 22 day) was <32.11> %. The swell rate (5 mg/kg iv, 22 day) was “(35.00 ± 15.12) %”, the swell value (5 mg/kg iv, 22 day) was 1.41 ± 0.22 mL and the inhibition rate (5 mg/kg iv, 24 day) was <31.56> %. For the same compound, the swell rate (5 mg/kg iv, 24 day) was “(35.95 ± 11.21) %”, the swell value (5 mg/kg iv, 24 day) was 1.45 ± 0.17 mL and the inhibition rate (5 mg/kg iv, 27 day) was <31.57> %. The swell rate (5 mg/kg iv, 27 day) was “(34.66 ± 13.01) %”, the swell value (5 mg/kg iv, 27 day) was 1.41 ± 0.23 mL and the inhibition rate (5 mg/kg iv, 29 day) was <29.04> %. For the same compound, the swell rate (5 mg/kg iv, 29 day) was “(31.12 ± 13.81) %”, the swell value (5 mg/kg iv, 29 day) was 1.39 ± 0.18 mL and the swell value (10 mg/kg iv, 0 day) was 1.08 ± 0.07 mL. The inhibition rate (10 mg/kg iv, 20 day) was <32.97> %, the swell rate (10 mg/kg iv, 20 day) was “(35.19 ± 19.75) %” and the swell value (10 mg/kg iv, 20 day) was 1.37 ± 0.26 mL. For the same compound, the inhibition rate (10 mg/kg iv, 22 day) was <47.51> %, the swell rate (10 mg/kg iv, 22 day) was “(27.06 ± 19.03) %” and the swell value (10 mg/kg iv, 22 day) was 1.30 ± 0.23 mL. The inhibition rate (10 mg/kg iv, 24 day) was <48.29> %, the swell rate (10 mg/kg iv, 24 day) was “(27.16 ± 16.39) %” and the swell value (10 mg/kg iv, 24 day) was 1.31 ± 0.21 mL. For the same compound, the inhibition rate (10 mg/kg iv, 27 day) was <44.61> %, the swell rate (10 mg/kg iv, 27 day) was “(28.05 ± 14.52) %” and the swell value (10 mg/kg iv, 27 day) was 1.32 ± 0.19 mL. The inhibition rate (10 mg/kg iv, 29 day) was <34.19> %, the swell rate (10 mg/kg iv, 29 day) was “(28.86 ± 19.06) %” and the swell value (10 mg/kg iv, 29 day) was 1.32 ± 0.23 mL. The “overall preventive effect on Collagen Type II induced arthritis” value (rats, 10, 5, 2.5 mg/kg iv) was “able to prevent Collagen Type II induced arthritis”.
